In US20240382432A1, “SINGLE CHAIN VARIABLE FRAGMENT (SCFV) MODIFIED LIPID NANOPARTICLE COMPOSITIONS AND USES THEREOF” (Generation Bio Co., priority 2021, published 2024):

Legend:
HER2 receptor [1] = experiment: HER2 scFv ligand internalization in cell-based assay (pHrhodo label); set-up: species or system human; conditions: MCF7 HER2- cell line; FIG. 1F
Procedure: (§1) As proof of concept, HER2 scFv binding and internalization in cell-based assays in vitro was carried out.

HER2 receptor [2] = molecular target: T1, HER2 receptor (Homo sapiens, UniProt P04626); experiment: as above
T1 construct: endogenous in cells; host or cells: Sk-BR3, Sk-OV3 (HER2+); MCF7 (HER2-, negative control)
Procedure: as §1

HER2 receptor [3] = experiment: HER2 scFv binding in cell-based assay (Alexa-fluor 488 labeled scFv); set-up: species or system human
Procedure: as §1

ligand internalization (HER2 receptor [2]; Sk-BR3 cells (HER2+), FIG. 1D): showed ligand internalization | ligand internalization (HER2 receptor [2]; Sk-OV3 cells (HER2+), FIG. 1E): showed ligand internalization
Substance: trastuzumab-derived α-HER2 scFv: trastuzumab-derived single-chain variable fragment directed against HER2 (SEQ ID NO:1 core sequence)
ligand internalization (HER2 receptor [1]): did not | HER2 receptor engagement (HER2 receptor [3]; MCF7 cells, do not express HER2 receptor (HER2-), FIG. 1C): not in MCF7 cells | HER2 receptor engagement (HER2 receptor [3]; Sk-BR3 HER2 expressing (HER2+) cell line, FIG. 1A): HER2 receptor engagement | HER2 receptor engagement (HER2 receptor [3]; Sk-OV3 HER2 expressing (HER2+) cell line, FIG. 1B): HER2 receptor engagement
